Results published in the kinase profiling compilation of Christmann-Franck et al. (2016).
Values joined by “and” are separate entries in the source; they are usually repeats but may differ in a detail not shown here. Identical values can stand only once.

Columns and labels:
Test in all cases: KINOMEscan competition binding
Conditions in all cases: compound 10.0 µM
[1] = tested on: ABL1 (human), P00519 [M351T]
[2] = target: ABL2 (human) (UniProt P42684)
[3] = target: AKT2 (human) (UniProt P31751)
[4] = target: ALK (human) (UniProt Q9UM73)
[5] = target: AURKC (human) (UniProt Q9UQB9)
[6] = target: CAMK2G (human) (UniProt Q13555)
[7] = target: CDK18 (human) (UniProt Q07002)
[8] = target: CIT (human) (UniProt O14578)
[9] = target: CLK1 (human) (UniProt P49759)
[10] = target: CLK3 (human) (UniProt P49761)
[11] = target: DCLK2 (human) (UniProt Q8N568)
[12] = target: EPHA8 (human) (UniProt P29322)
[13] = target: EPHB3 (human) (UniProt P54753)
[14] = tested on: FLT3 (human), P36888 [N841I]
[15] = target: FRK (human) (UniProt P42685)
[16] = target: HIPK1 (human) (UniProt Q86Z02)
[17] = target: INSR (human) (UniProt P06213)
[18] = target: JAK3 JH1 catalytic (human) (UniProt P52333)
[19] = target: MAP3K5 (human) (UniProt Q99683)
[20] = target: MAPK4 (human) (UniProt P31152)
[21] = target: MARK2 (human) (UniProt Q7KZI7)
[22] = target: MUSK (human) (UniProt O15146)
[23] = target: MYO3A (human) (UniProt Q8NEV4)
[24] = target: NEK1 (human) (UniProt Q96PY6)
[25] = target: NTRK1 (human) (UniProt P04629)
[26] = target: PRKCQ (human) (UniProt Q04759)
[27] = target: RAF1 (human) (UniProt P04049)
[28] = target: RIOK3 (human) (UniProt O14730)
[29] = target: RIPK1 (human) (UniProt Q13546)
[30] = target: RIPK4 (human) (UniProt P57078)
[31] = target: RPS6KA6 KD2 (human) (UniProt Q9UK32)
[32] = target: SIK2 (human) (UniProt Q9H0K1)
[33] = target: SLK (human) (UniProt Q9H2G2)
[34] = target: STK10 (human) (UniProt O94804)
[35] = target: STK35 (human) (UniProt Q8TDR2)
[36] = target: STK38L (human) (UniProt Q9Y2H1)
[37] = target: TLK1 (human) (UniProt Q9UKI8)
[38] = target: TYRO3 (human) (UniProt Q06418)
[39] = target: WEE1 (human) (UniProt P30291)
[40] = target: CSF1R (human) (UniProt P07333)

Chain of NEK1 (human) (Q96PY6 whole entry, looked up): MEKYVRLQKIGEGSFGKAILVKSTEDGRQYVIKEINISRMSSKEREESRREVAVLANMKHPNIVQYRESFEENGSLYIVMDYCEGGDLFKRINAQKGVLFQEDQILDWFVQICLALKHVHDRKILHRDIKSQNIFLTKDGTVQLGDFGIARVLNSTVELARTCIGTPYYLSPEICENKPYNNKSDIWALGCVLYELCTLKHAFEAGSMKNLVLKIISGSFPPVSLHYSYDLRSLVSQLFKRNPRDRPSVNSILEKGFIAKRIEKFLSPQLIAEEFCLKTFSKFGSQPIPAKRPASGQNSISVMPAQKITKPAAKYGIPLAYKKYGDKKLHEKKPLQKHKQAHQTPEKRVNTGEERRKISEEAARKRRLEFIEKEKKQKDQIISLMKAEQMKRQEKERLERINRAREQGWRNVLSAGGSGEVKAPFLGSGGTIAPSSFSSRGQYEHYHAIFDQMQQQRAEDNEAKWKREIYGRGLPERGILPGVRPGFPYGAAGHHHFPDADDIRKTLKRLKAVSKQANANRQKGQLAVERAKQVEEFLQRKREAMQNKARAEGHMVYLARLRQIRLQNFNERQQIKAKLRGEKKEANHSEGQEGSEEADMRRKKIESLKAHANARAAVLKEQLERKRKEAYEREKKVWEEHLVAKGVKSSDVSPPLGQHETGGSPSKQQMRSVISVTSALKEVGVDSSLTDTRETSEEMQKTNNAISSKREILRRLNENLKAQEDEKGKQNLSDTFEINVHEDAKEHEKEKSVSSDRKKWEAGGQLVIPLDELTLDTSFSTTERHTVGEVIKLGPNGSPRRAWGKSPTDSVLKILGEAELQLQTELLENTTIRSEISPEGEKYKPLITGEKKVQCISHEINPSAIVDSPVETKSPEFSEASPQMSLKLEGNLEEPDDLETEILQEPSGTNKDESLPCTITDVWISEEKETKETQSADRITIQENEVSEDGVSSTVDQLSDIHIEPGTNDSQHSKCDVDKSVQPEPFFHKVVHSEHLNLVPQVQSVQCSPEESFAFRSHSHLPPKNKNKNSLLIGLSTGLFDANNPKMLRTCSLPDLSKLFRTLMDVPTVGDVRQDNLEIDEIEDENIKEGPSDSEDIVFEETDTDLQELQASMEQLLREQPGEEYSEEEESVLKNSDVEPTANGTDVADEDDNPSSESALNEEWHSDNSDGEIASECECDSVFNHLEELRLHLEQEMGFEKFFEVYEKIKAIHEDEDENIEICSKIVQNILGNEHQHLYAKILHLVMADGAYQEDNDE
Chain of RIOK3 (human) (O14730 whole entry, looked up): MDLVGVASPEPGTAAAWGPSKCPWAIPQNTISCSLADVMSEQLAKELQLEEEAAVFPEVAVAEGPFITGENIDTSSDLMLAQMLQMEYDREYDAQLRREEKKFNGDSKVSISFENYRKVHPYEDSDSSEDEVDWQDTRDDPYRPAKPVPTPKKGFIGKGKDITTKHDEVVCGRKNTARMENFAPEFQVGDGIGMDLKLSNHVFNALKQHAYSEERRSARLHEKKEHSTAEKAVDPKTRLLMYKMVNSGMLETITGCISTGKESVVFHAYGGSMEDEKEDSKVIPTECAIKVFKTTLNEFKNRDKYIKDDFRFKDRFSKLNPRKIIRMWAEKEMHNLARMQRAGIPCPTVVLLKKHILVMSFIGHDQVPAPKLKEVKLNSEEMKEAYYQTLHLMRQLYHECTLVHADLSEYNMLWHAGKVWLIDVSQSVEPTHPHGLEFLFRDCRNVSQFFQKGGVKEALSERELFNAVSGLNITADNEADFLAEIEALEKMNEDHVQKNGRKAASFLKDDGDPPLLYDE
Chain of SIK2 (human) (Q9H0K1 whole entry, looked up): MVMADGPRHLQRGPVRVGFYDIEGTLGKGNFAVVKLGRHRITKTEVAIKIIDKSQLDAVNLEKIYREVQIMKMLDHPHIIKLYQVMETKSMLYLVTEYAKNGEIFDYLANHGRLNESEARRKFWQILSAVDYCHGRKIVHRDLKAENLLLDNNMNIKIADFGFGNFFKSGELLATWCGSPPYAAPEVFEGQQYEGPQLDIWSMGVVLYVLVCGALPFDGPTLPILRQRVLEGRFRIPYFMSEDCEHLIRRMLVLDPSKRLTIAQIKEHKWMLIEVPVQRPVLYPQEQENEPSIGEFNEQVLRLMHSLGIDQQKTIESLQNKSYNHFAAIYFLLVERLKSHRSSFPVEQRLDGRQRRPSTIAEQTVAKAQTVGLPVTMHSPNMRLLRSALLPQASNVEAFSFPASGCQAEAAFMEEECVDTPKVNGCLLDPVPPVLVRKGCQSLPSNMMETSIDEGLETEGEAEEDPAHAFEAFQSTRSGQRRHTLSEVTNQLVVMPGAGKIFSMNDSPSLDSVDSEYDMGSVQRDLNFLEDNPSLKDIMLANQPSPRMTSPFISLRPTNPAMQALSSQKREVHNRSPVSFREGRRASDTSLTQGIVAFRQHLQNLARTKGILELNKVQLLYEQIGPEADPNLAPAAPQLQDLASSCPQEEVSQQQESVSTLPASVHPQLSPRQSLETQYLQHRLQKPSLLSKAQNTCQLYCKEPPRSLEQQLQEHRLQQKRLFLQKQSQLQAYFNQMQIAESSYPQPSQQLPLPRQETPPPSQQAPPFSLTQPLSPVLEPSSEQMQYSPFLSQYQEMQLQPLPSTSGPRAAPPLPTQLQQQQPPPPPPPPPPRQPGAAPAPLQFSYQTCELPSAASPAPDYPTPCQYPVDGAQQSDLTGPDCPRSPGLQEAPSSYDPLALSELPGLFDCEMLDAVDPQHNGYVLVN
Chain of INSR (human) (P06213 whole entry, looked up): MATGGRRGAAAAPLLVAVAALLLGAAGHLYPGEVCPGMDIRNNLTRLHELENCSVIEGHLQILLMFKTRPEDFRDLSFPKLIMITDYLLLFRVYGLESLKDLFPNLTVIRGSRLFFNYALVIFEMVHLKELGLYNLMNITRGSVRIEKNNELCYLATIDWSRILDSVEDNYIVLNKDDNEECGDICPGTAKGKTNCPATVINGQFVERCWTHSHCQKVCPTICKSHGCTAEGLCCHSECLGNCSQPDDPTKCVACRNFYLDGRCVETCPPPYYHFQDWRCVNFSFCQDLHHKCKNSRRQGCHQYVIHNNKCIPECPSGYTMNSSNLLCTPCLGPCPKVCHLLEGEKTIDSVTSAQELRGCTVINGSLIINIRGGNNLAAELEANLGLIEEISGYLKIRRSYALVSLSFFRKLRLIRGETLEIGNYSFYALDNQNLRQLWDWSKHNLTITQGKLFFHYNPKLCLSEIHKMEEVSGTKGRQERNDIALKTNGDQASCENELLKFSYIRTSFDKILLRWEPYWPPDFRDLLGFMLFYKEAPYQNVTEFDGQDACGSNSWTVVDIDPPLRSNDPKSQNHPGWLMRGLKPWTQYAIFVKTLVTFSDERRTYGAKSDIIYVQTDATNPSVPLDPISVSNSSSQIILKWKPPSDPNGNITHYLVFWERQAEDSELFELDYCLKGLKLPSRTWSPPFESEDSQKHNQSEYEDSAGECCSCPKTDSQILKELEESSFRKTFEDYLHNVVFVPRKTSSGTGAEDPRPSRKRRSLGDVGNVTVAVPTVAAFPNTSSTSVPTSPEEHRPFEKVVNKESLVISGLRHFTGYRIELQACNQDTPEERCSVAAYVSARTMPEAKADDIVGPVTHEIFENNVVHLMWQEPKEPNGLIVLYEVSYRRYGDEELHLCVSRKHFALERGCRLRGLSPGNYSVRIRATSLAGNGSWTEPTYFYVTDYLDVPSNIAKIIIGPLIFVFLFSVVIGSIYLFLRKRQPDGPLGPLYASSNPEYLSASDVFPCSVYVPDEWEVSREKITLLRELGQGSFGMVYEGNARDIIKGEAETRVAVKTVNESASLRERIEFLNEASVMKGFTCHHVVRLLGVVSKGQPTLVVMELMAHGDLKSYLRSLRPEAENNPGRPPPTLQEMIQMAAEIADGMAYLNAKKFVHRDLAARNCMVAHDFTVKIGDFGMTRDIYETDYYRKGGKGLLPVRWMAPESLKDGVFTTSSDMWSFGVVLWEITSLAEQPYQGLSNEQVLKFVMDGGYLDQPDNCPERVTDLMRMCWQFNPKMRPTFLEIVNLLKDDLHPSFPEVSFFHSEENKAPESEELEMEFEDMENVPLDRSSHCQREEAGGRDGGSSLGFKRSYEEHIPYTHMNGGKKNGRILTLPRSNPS
Chain of TYRO3 (human) (Q06418 whole entry, looked up): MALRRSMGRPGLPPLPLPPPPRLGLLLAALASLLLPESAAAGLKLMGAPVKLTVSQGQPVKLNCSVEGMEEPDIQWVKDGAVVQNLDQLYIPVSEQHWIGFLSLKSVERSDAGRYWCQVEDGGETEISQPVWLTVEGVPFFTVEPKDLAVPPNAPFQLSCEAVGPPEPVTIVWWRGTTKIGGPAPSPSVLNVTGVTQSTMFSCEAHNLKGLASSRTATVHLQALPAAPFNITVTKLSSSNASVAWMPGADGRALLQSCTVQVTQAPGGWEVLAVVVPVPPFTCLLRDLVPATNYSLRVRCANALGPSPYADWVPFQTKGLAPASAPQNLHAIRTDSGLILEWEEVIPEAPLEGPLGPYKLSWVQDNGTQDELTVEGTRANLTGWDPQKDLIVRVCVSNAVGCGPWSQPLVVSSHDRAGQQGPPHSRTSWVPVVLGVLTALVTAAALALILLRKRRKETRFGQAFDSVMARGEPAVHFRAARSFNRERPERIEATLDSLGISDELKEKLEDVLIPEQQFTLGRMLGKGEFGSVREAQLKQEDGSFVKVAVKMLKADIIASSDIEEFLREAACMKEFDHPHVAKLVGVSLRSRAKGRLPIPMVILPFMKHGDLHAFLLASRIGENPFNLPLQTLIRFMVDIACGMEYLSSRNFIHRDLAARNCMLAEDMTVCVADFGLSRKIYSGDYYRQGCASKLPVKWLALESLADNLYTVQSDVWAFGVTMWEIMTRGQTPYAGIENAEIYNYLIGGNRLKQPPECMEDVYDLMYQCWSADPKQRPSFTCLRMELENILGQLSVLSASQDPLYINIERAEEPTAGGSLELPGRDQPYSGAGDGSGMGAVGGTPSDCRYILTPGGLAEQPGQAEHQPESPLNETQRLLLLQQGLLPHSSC

Row | Structure (SMILES) | kinase still bound, per cent of control [2] | kinase still bound, per cent of control [3] | kinase still bound, per cent of control [4] | kinase still bound, per cent of control [6] | kinase still bound, per cent of control [7] | kinase still bound, per cent of control [8] | kinase still bound, per cent of control [9] | kinase still bound, per cent of control [10] | kinase still bound, per cent of control [11] | kinase still bound, per cent of control [12] | kinase still bound, per cent of control [13] | kinase still bound, per cent of control [15] | kinase still bound, per cent of control [16] | kinase still bound, per cent of control [17] | kinase still bound, per cent of control [18] | kinase still bound, per cent of control [19] | kinase still bound, per cent of control [20] | kinase still bound, per cent of control [22] | kinase still bound, per cent of control [23] | kinase still bound, per cent of control [24] | further results
1 | Nc1ccc(-c2ccc3ncc4ccc(=O)n(-c5cccc(C(F)(F)F)c5)c4c3c2)cn1 | 100% | 100% | 100% | 95% | 100% | 100% | 12% | 71% | 98% | 99% | 100% | 100% | 79% | 59% | 100% | 100% | 75% | 100% | 100% | 87% | kinase still bound, per cent of control [1]: 100%; kinase still bound, per cent of control [5]: 100%; kinase still bound, per cent of control [14]: 11%; kinase still bound, per cent of control [21]: 100%; kinase still bound, per cent of control [25]: 57%; kinase still bound, per cent of control [26]: 100%; kinase still bound, per cent of control [27]: 100%; kinase still bound, per cent of control [28]: 100%; kinase still bound, per cent of control [29]: 100%; kinase still bound, per cent of control [30]: 100%; kinase still bound, per cent of control [31]: 70%; kinase still bound, per cent of control [32]: 73%; kinase still bound, per cent of control [33]: 100%; kinase still bound, per cent of control [34]: 100%; kinase still bound, per cent of control [35]: 92%; kinase still bound, per cent of control [36]: 100%; kinase still bound, per cent of control [37]: 90%; kinase still bound, per cent of control [38]: 100%; kinase still bound, per cent of control [39]: 100%
2 | CCCS(=O)(=O)Nc1ccc(F)c(C(=O)c2c[nH]c3ncc(-c4ccc(Cl)cc4)cc23)c1F | 32% | 76% | 62% | 95% | 100% | 30% | 70% | 92% | 100% | 83% | 100% | 16% | 90% | 78% | 83% | 100% | 100% | 99% | 57% | 100% | kinase still bound, per cent of control [1]: 55%; kinase still bound, per cent of control [40]: 8%; kinase still bound, per cent of control [21]: 69%; kinase still bound, per cent of control [25]: 90%; kinase still bound, per cent of control [26]: 43%; kinase still bound, per cent of control [27]: 0.95%; kinase still bound, per cent of control [28]: 100%; kinase still bound, per cent of control [29]: 63%; kinase still bound, per cent of control [30]: 91%; kinase still bound, per cent of control [31]: 75%; kinase still bound, per cent of control [32]: 61%; kinase still bound, per cent of control [33]: 1.4%; kinase still bound, per cent of control [34]: 16%; kinase still bound, per cent of control [35]: 100%; kinase still bound, per cent of control [36]: 100%; kinase still bound, per cent of control [37]: 95%; kinase still bound, per cent of control [38]: 100%; kinase still bound, per cent of control [39]: 100%
3 | CCC(=O)N1CCN(c2ccc(-n3c(=O)ccc4cnc5ccc(-c6cnc7ccccc7c6)cc5c43)cc2C(F)(F)F)CC1 | 99% | 100% | 80% | 79% | 97% | 59% | 49% | 43% | 100% | 71% | 85% | 60% | 63% | 7.6% | 100% | 100% | 80% | 100% | 100% | 89% | kinase still bound, per cent of control [1]: 100%; kinase still bound, per cent of control [5]: 91%; kinase still bound, per cent of control [40]: 24%; kinase still bound, per cent of control [14]: 8.8%; kinase still bound, per cent of control [25]: 64%; kinase still bound, per cent of control [26]: 91%; kinase still bound, per cent of control [27]: 48%; kinase still bound, per cent of control [28]: 90%; kinase still bound, per cent of control [29]: 1.9%; kinase still bound, per cent of control [30]: 100%; kinase still bound, per cent of control [31]: 86%; kinase still bound, per cent of control [32]: 23%; kinase still bound, per cent of control [33]: 94%; kinase still bound, per cent of control [34]: 79%; kinase still bound, per cent of control [35]: 18%; kinase still bound, per cent of control [36]: 94%; kinase still bound, per cent of control [37]: 100%; kinase still bound, per cent of control [38]: 31%; kinase still bound, per cent of control [39]: 42%
4 | O=C(NOC[C@H](O)CO)c1ccc(F)c(F)c1Nc1ccc(I)cc1F | 90% | 100% | 100% | 100% | 100% | 100% | 95% | 100% | 100% | 94% | 89% | 60% | 91% | 92% | 100% | 91% | 77% | 68% | 47% | 98% | kinase still bound, per cent of control [5]: 45%; kinase still bound, per cent of control [40]: 100% and 80%; kinase still bound, per cent of control [14]: 78%; kinase still bound, per cent of control [21]: 100%; kinase still bound, per cent of control [25]: 100%; kinase still bound, per cent of control [26]: 100%; kinase still bound, per cent of control [27]: 99%; kinase still bound, per cent of control [28]: 100%; kinase still bound, per cent of control [29]: 85%; kinase still bound, per cent of control [30]: 100%; kinase still bound, per cent of control [31]: 80%; kinase still bound, per cent of control [32]: 92%; kinase still bound, per cent of control [33]: 93%; kinase still bound, per cent of control [35]: 83%; kinase still bound, per cent of control [36]: 100%; kinase still bound, per cent of control [37]: 89%; kinase still bound, per cent of control [38]: 80%; kinase still bound, per cent of control [39]: 67%
